Reference: US10865176B2, “Small molecule modulators of microRNA-34a” (The Chinese University of Hong Kong, priority 2012, dated 2020)
Marks after values point to notes of the source that are not given here.

Key:
[1] = test system: Hep3B cells; experiment: MTT cell viability assay, Hep3B; assay type: cell-based, human; conditions: different concentrations and time points
Experimental: (§1) Cell viability was measured by 3-(4,5-Dimethylthiazol-2-yl)-2,5-diphenyltetrazolium bromide (MTT) assay. 1×10^3 Cells were seeded in triplicate on a 96 well plate and were allowed to grow for indicated time points. At each time point a set of cells were incubated with 0.5 mg/ml MTT diluted in 1×PBS. After 2 to 4 h incubation, the MTT solution was removed. The insoluble MTT was dissolved in DMSO. Absorbance at 570 nm was measured by an ELISA plate reader.

[2] = test system: PLC cells; experiment: MTT cell viability assay, PLC/PRF/5; assay type: cell-based, human
Experimental: as §1

[3] = test system: miR-34a; experiment: qRT-PCR of primary and mature miR-34a in HCC cells; assay type: cell-based, human; conditions: for increased miR-34a level by Rubone after p53 knockdown: 2 μM siRNAs targeting p53, 10 μM Rubone; for primary and mature miR-34a levels: 10 μM, 48 h
Experimental: (§2) Total RNA from cell cultures and HCC xenograft tumors were extracted using Trizol (Invitrogen) according to manufacturer's protocols. Total RNAs were dissolved into nuclease-free ddH2O. For protein extraction, cells and HCC xenograft tumors were lysed in 1×RIPA buffer with 1 mM PMSF and 1× complete protease inhibitor cocktail (Roche, Indianapolis, Ind.). Both RNA and protein were stored at −80° C.
(§3) Total RNA was reversely transcribed into cDNAs using High Capacity cDNA Reverse Transcription Kit (Applied Biosystems, Foster city, CA, USA) and nude RT kit (Invitrogen) individually. qRT-PCR was performed using SYBR Green PCR master mix (TaKaRa, Dalian, China). GAPDH was used as an endogenous control. For measuring miR-34a expression level, qPCR was performed by using SYBR Green PCR master mixture (Invitrogen) and U6 was used as the internal control. All samples were normalized to internal controls and fold changes were calculated by relative quantification (2^−ΔΔct).

[4] = test system: Cyclin D1 and Bcl-2; experiment: qRT-PCR of Cyclin D1 and Bcl-2 in xenografted tumors; assay type: in vivo, nude mice; conditions: excised tumors after 24 d gavage
Experimental: as §2, §3
(§4) Tumor volume was calculated as [(Length×Width×Height)[…]]. Treatment was continued for 24 d. Finally, all mice were sacrificed and tumors were excised. Tumor weight was recorded.

[5] = test system: p53; experiment: ChIP assay, p53 occupancy on miR-34a promoter; assay type: cell-based, human; conditions: Bel-7404 cells, 10 μM
Experimental: (§5) ChIP assay was performed as described before (26). Cross-linked chromatin were incubated overnight with anti-H3 (Cat #: 9003, Cell Signaling Technology), IgG (Cat #: 9003, Cell Signaling Technology), p53 (Cat #: sc-106, Santa Cruz, Cambridge, Mass.). The precipitated DNA were quantitated absolutely by real-time PCR and normalized by respective 2% input.

[6] = target: p53 (Homo sapiens, UniProt P04637); experiment: ChIP assay, p53 occupancy on miR-34a promoter; assay type: cell-based; conditions: HepG2 cells, 10 μM
Sequence of p53 (Homo sapiens, UniProt P04637) (P04637 whole entry): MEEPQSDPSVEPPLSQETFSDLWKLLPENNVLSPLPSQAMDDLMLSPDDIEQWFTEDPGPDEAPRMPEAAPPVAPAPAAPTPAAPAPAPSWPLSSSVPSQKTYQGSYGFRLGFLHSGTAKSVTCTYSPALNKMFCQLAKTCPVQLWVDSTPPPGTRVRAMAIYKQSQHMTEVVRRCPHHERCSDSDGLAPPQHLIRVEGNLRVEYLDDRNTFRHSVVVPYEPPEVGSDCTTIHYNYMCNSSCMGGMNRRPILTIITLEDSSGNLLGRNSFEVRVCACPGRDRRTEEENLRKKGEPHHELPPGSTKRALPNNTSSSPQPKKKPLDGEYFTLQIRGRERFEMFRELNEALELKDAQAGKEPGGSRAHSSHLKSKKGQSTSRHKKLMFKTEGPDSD
Experimental: as §5

[7] = test system: miR-34a; experiment: qRT-PCR of pri-miR-34a and miR-34a in xenografted tumors; assay type: in vivo, nude mice; conditions: excised tumors after 24 d gavage
Experimental: as §2, §3, §4

[8] = test system: human umbilical vein endothelial cells (HUVECs); experiment: In vitro tube formation assay; assay type: cell-based; conditions: ECM gel, 4 h
Experimental: The in vitro tube formation assay with human umbilical vein endothelial cells (HUVECs) was performed using the in vitro Angiogenesis Assay Kit (Cell Biolabs). HUVECs were plated at the density of 2×10^4/well and treated with Dimethyl sulfoxide (DMSO) or Rubone ([…] or 2 μM) respectively for 24 h. HUVECs were then seeded onto the ECM gel surface and cultured for 4 h. Then, 100 μl 1× Staining Solution was applied to each well and incubated 30 min at 37° C. and images were captured with an Olympus SC35 camera (Olympus America, Inc., Melville, N.Y.). Tube formation was quantified by counting the number of branching points on each image.

[9] = test system: non-tumorigenic human hepatocyte cell line MIHA; experiment: MTT cell viability assay, MIHA; assay type: cell-based; conditions: different concentrations and time points
Experimental: as §1

[10] = test system: miR-7a, miR-21, miR-23a, miR-29c, miR-34c, miR-219, miR-145, miR-192, miR-215; experiment: qRT-PCR of a panel of other miRNAs in Huh7 cells; assay type: cell-based, human; conditions: 10 μM, 48 h
Experimental: as §2, §3

[11] = test system: Bel-7404 cells; experiment: MTT cell viability assay, Bel-7404; assay type: cell-based, human
Experimental: as §1

[12] = test system: HepG2 xenografted tumor; experiment: HepG2 xenografted nude mice model, tumor growth; assay type: in vivo; conditions: for Tumor growth inhibition (%) / Tumor weight (g): gavage once every two days; for Tumor growth inhibition (%): 24 d; for Tumor weight (g): day 24, mean (95% CI)
Experimental: as §4

[13] = test system: HepG2 cells; experiment: MTT cell viability assay, HepG2; assay type: cell-based, human
Experimental: as §1

[14] = test system: CDK6, FOXP, Notch1 and Sirtuin; experiment: Expression of other miR-34a targets by qRT-PCR in HCC cells; assay type: cell-based, human; conditions: 10 μM, 48 h
Experimental: as §2, §3

COc1cc(O)c(C(=O)/C=C/c2cc(OC)c(OC)cc2OC)c(OC)c1 [Rubone, 2′-Hydroxy-2,4,4′,5,6′-pentamethoxychalcone]
growth rate (MTT) [1]: little changes in the growth rate | cell growth (MTT) ([2]; 10 μM): significantly inhibited the growth | effect of miR-34a inhibitors on growth inhibition by Rubone (MTT) ([2]; 10 μM Rubone with 2 μM miR-34a inhibitors, 72 h): reversed the growth inhibitory effect | effect of miR-34a mimics on chemosensitivity to Rubone (MTT) ([2]; 10 μM Rubone with 2 μM miR-34a mimics, 72 h): enhanced the chemosensitivity | increased miR-34a level by Rubone after p53 knockdown ([3]; Bel-7404 cells): significantly reversed by p53 knockdown | primary and mature miR-34a levels ([3]; Hep3B cells (p53 deleted)): no change | primary and mature miR-34a levels ([3]; HepG2 cells (wild-type p53)): significantly increased | increased miR-34a level by Rubone after p53 knockdown ([3]; HepG2 cells): significantly reversed by p53 knockdown | primary and mature miR-34a levels ([3]; Huh7 cells (mutant p53)): significantly increased | Cyclin D1 and Bcl-2 expression in xenografted tumors [4]: down-regulated | p53 occupancy on miR-34a promoter [5]: significantly increased p53 occupancy | p53 occupancy on miR-34a promoter [6]: significantly increased p53 occupancy | pri-miR-34a and miR-34a levels in xenografted tumors [7]: up-regulated | tube score ([8]; 1 μM, control group 42.33, p=0.0036): 3.667 | tube formation ([8]; 2 μM): no tubes formed at all | growth rate (MTT) [9]: little changes in the growth rate | expression of other p53 regulated miRNAs (miR-34c, miR-145, miR-192, miR-215) [10]: did not change | expressions of miR-7a, miR-21, miR-23a, miR-29c, miR-34c and miR-219 [10]: not affected | growth inhibitory effect of Rubone after p53 knockdown (MTT) ([11]; Bel-7404, 2 μM siRNAs targeting p53, 10 μM Rubone): significantly reversed by knocking down p53 | cell growth (MTT) ([11]; Bel-7404, 10 μM): significantly inhibited the growth | effect of miR-34a inhibitors on growth inhibition by Rubone (MTT) ([11]; Bel-7404, 10 μM Rubone with 2 μM miR-34a inhibitors, 72 h): reversed the growth inhibitory effect | effect of miR-34a mimics on chemosensitivity to Rubone (MTT) ([11]; Bel-7404, 10 μM Rubone with 2 μM miR-34a mimics, 72 h): enhanced the chemosensitivity | Tumor growth inhibition (%) ([12]; 20 mg/kg): 78.27% | Tumor weight (g) ([12]; 20 mg/kg): 0.256 (95% CI = 0.08 − 0.42)** g | Tumor growth inhibition (%) ([12]; 50 mg/kg): 89.64% | Tumor weight (g) ([12]; 50 mg/kg): 0.122 (95% CI = 0.067 − 0.18)** # g | tumor growth inhibition compared with Sorafenib ([12]; same dosage of 50 mg/kg, p=0.047 vs. sorafenib treated group): stronger tumor growth inhibition than Sorafenib | growth inhibitory effect of Rubone after p53 knockdown (MTT) ([13]; HepG2, 2 μM siRNAs targeting p53, 10 μM Rubone): significantly reversed by knocking down p53 | cell growth (MTT) ([13]; HepG2, 10 μM): significantly inhibited the growth | expression levels of CDK6, FOXP, Notch1 and Sirtuin ([14]; HepG2 cells): decreased | expression levels of CDK6, FOXP, Notch1 and Sirtuin ([14]; Huh7 cells): decreased
